The text below walks through data of patent EP2305268A1, “A PHARMACEUTICAL COMPOSITION FOR TREATING DISEASE CAUSED BY IMMUNE DISTURBANCE AND THE EXTRACT FROM TUCKAHOE” (Sinphar Tian-li Pharmaceutical Co., Ltd. (Hangzhou), priority 2008, dated 2009).

Holding throughout (type): in vivo, BALB/c mice
Experiment [1] deals with OVA-sensitized asthmatic mice. Kind of experiment: Airway hyperresponsiveness (AHR) test, Buxco system, Penh after methacholine aerosol. Here is the method:
(§1) Mice in different groups were fed with a Poria extract or pure lanostane compound during the experimental period, and each mouse was subjected to an airway hyperresponsiveness test after one-month feeding, from which an important index reflecting the severe degree of the asthma of the mouse was determined. […] Further, a chemoattractant factor, Eotaxin, was an important observation factor in this example for observing whether the secretion of cytokines changed dramatically.
(§2) • (1) Experimental animal: Inbred BALB/c female mice were maintained by standard laboratory chow ad libitum. Room temperature was maintained at 19-24°C and relative humidity at 50-70%. […] Three minutes after the introduction an average value of AHR per minute was recorded. […] The value of Penh (pause of enhance) was calculated by collecting data derived from transducer (differential pressure transducer; Buxco) and preamplifier (MAX □, Buxco) in the system. The relative increase ratio of Penh was calculated as Penh% = Penhmethacholine/PenhPBS, wherein Penhmethacholine is the average value of Penh after the mice inhale 3 minutes of methacholine aerosol, and PenhPBS is the average value of Penh after the mice inhale 3 minutes of PBS aerosol. • (5) Bronchoalveolar lavage fluid (BALF) and lung histology: As all groups of mice had finished of AHR analysis, they were sacrificed on next day. […]

The test system of experiment [2] is immune cells in BALF of OVA-sensitized mice. In words: Percentage of subpopulations of immune cells in bronchoalveolar lavage fluid (BALF), Liu's stain cell count. To be noted: % of total BALF cells, mean ± SD. The protocol: as §1
• (1) Experimental animal: Inbred BALB/c female mice were maintained by standard laboratory chow ad libitum. Room temperature was maintained at 19-24°C and relative humidity at 50-70%. Animal experiments were performed according to the Guidelines for the Care and Use of Laboratory Animals, Fu-Jen University, Taiwan. […] All mice were exposed to inhalate exposure to 8 ml of 2% OVA aerosols for a period of 20 minutes by placing them in a chamber using an ultrasonic nebulizer (DeVilbiss Pulmo-Aide, 5650D, USA), after receiving the second intraperitoneal injection. • (3) Grouping of the experimental animal: The 10 groups of OVA-sensitized asthmatic mice were separated into a non-treatment asthma group (As); treatment groups with the Poria extract prepared in Example 2 and pure compounds K1, K2 and K3 (1PCE, 1K1, 1K2, 1K3, 2PCE, 2K1, 2K2, and 2K3); and the control drug group (Pred). Each mouse in the treatment group of 1PCE group received daily 0.0372 mg of the ethanol extract PCE prepared in Example 2 (1PCE). 2PCE means mice were fed with two times of the dosage of PCE (0.0744 mg) of the 1PCE group. Each mouse in the treatment groups of 1K1, 1K2 and 1K3 received daily 0.0087 mg of K1, K2 and K3, respectively. 2K1, 2K2, and 2K3 mean mice werer fed with two times of the dosage of K1, K2 and K3 (0.0174 mg) in comparison with the 1K1, 1K2 and 1 K3 groups. Each mouse of the Pred group had been administrated with 0.1 mg of Prednisolone per day for 5 continuous days before the mouse was sacrificed. Above PCE, K1, K2, K3 and Prednisolone compounds were dissolved by 95% ethanol firstly, and finally in Phosphate Buffer Solution (PBS). Each mouse was administered 0.4 mL of total volume each time by gavage. • (4) Airway hyperresponsiveness test: An airway hyperresponsiveness (AHR) value increases proportionally with the severe degree of asthma, and thus a decrease of AHR value is an important index for determining whether asthma is being released. Each mouse in all groups was subjected to the AHR test next day following the 29th day of administering in the treatment groups on which the last inhalate exposure was conducted. The AHR was tested with Buxco system (Biosystem XA; Buxco Electronics Inc. Sharon, CT, USA), wherein the mouse was placed in a chamber, and aerosol of PBS or methacholine of different concentrations (25 mg/ml, and 50 mg/ml) was introduced into the chamber by using an ultrasonic nebulizer. Three minutes after the introduction an average value of AHR per minute was recorded. […] The value of Penh (pause of enhance) was calculated by collecting data derived from transducer (differential pressure transducer; Buxco) and preamplifier (MAX □, Buxco) in the system. The relative increase ratio of Penh was calculated as Penh% = Penhmethacholine/PenhPBS, wherein Penhmethacholine is the average value of Penh after the mice inhale 3 minutes of methacholine aerosol, and PenhPBS is the average value of Penh after the mice inhale 3 minutes of PBS aerosol. • (5) Bronchoalveolar lavage fluid (BALF) and lung histology: As all groups of mice had finished of AHR analysis, they were sacrificed on next day. The lung was immediately lavaged via the trachea cannula (18 GA, angiocath, B.D.) with 1 ml of Hank's balanced salt solution (HBSS, SH30016.01, Hyclone, USA), which contained 2% fetal bovine serum (FBS) and 2 mM 2Na-EDTA for three times. About 3 ml of BALF were collected.

The subject of the next experiment is Eotaxin. In words: Eotaxin level in BALF by Sandwich-ELISA. The conditions noted are these: mean ± SD. The protocol:
as §1, §2

Setting [3] is: groups 1K1, 1K2, 1K3: 0.0087 mg per mouse daily by gavage.
Setting [4] is: groups 2K1, 2K2, 2K3: 0.0174 mg per mouse daily by gavage.
Where [5] appears, read: Pred group: 0.1 mg Prednisolone per day for 5 continuous days before sacrifice.

Each structure is given as a SMILES string. “And” between values parts separate entries of the source, which are not always exact repeats. Equal entries are not always repeated.

Take `C=C(CC[C@@H](C(=O)O)[C@H]1[C@H](O)C[C@@]2(C)C3=CC[C@H]4C(C)(C)C(=O)CC[C@]4(C)C3=CC[C@]12C)C(C)C` [K3]: the “values of AHR in comparison with the As group” value in experiment [1] (groups 1K1, 1K3: 0.0087 mg per mouse daily by gavage, methacholine 50mg/mL) is reported as “significantly lower values ofAHR”. Also, in experiment [2] (setting [3]), the Eosinophil was 11.3±7.0%, the Lymphocyte was found to be 49.8±12.8%, the Monocyte turned out to be 38.2±8.7% and the Neutrophil is given as 0.8±0.9%. Moreover, in experiment [2] (setting [4]), the Eosinophil was 9.7±3.6%, the Lymphocyte came to 52.1±8.1%, the Monocyte is on record as 37.1±5.7% and the Neutrophil came out at 1.1±1.1%. In addition, in the experiment on Eotaxin (setting [3]), the Eotaxin result was “significantly lower levels of Eotaxin and 21.1±10.4 pg/mL”. In addition, the Eotaxin with Eotaxin (setting [4]) was 25.1 ± 12.0 pg/mL.

As to `C[C@]12C=CC(=O)C=C1CC[C@@H]1[C@@H]2[C@@H](O)C[C@@]2(C)[C@H]1CC[C@]2(O)C(=O)CO` [Pred, Prednisolone, reference compound], the “values of AHR in comparison with the As group” value in experiment [1] (setting [5]) was “lower values of AHR but not statistically significant”. Also, in experiment [2] (setting [5]), the Monocyte is recorded as 13.3±7.8% and the Neutrophil is 0.8±0.8%.
